Data on 3 molecules can be found in EP1270558B1, “"Compound for the treatment of atherosclerotic-thrombotic pathological conditions"” (Casagrande, Cesare, priority 2001, dated 2003).

Assay [1] relates to platelet-rich plasma (PRP). Description: Platelet aggregation in platelet-rich plasma (aggregometer, light transmittance). The class given is cell-based. Particulars: for IC50: Homo sapiens, Platelet, 10 min, 10 min incubation. On the procedure: Platelet aggregation experiments were performed on platelet-rich plasma (PRP) prepared from blood of healthy human subjects, who had not taken cyclooxygenase inhibitors (acetylsalicylic acid, non-steroidal antiinflammatory agents) for at least two weeks. Blood was collected in test tubes containing a 3.2 % sodium citrate solution (1/10 of blood volume) and immediately centrifuged at 150 x g for 15 minutes. Samples of PRP were further centrifuged at 12,000 x g in order to obtain platelet-poor plasma (PPP), used for calibration of light transmittance of the double-channel aggregometer, fixing the transmittance of PRP as 10 % and that of PPP as 90 %. Platelet aggregation in PRP of each subject was tested measuring the percent increase in transmittance under the addition of increasing amounts of sodium arachidonate, in concentrations in the range from 300 to 900 µM, or of collagen, in concentrations in the range from 0.5 to 2.5 µg/ml, or of U-46619, in concentrations in the range from 0.2 to 1.6 µM. […] In this way the threshold concentration, i.e., the concentration inducing a submaximal irreversible aggregation was assessed in each subject with the three agents.
PRP samples of subjects not responding to the maximal concentrations were discarded.

For assay [2], the system named is thromboxane synthesis. Briefly: Thromboxane synthesis in clotting blood (serum TxB2 by radioimmunoassay). It is filed as cell-based. To be noted: human blood clotted 60 min at 37°C. On the procedure:
Test compounds were added in a series of concentrations ranging from 10^-7 M to 10^-3 M to samples of blood from healthy human subjects, who had not taken cyclooxygenase inhibitors (acetylsalicylic acid, non-steroidal antiinflammatory agents) for at least two weeks. The blood samples were allowed to clot for 60 min in a bath at 37°C, and then centrifuged at 2500 x g for 10 min. The serum was separated and kept frozen at -20°C for the determination of TxB2 by radioimmunoassay. TxB2 is the stable metabolite into which thromboxane A2 is rapidly converted.

For assay [3], the system named is transcellular synthesis of prostacyclin. Description: Transcellular prostacyclin synthesis: PRP layered on acetylsalicylic acid-pretreated endothelial cells (6-keto-prostaglandin F1α by radioimmunoassay). It is filed as cell-based, bovine. On the procedure:
The effects on the transcellular synthesis of prostacyclin from endoperoxides generated in platelets were assessed by layering platelet rich plasma (PRP), obtained from healthy human subjects as described above, on cultured bovine endothelial cells (5 x 10^5 cells/well). The endothelial cells were pretreated with acetylsalicylic acid (10^-4 M) in order to inhibit the direct synthesis of endoperoxides, and washed twice with Dulbecco's phosphate buffered saline. Then to individual samples of endothelial cells there were added at 37°C while shaking on an oscillating platform, 0.5 ml of PRP samples pretreated with the test compounds in various concentrations, ranging from 10^-7 M to 10 ^-3 M. Collagen (0.5 µg/ml) was then added to each sample. After 2 minutes of contact at 37°C, PRP was removed and centrifuged at 12,000 x g, and the supernatant was frozen and kept at -20°C for the determination of 6-keto-prostaglandin F1α by radioimmunoassay.
6-Keto-prostaglandin F1α is a stable metabolite into which prostacyclin is rapidly converted.

Assay [4] deals with rabbit aortae. Description: Vascular relaxation of precontracted aortic rings in vitro. The class given is cell-based. Particulars: for EC50: Oryctolagus cuniculus, read-out: calculated EC50. As to the method:
The ability to induce vascular relaxation by acting as a donor of nitric oxide was tested in vitro on rabbit aortae. Rings of aortae were suspended in a Krebs-Henseleit solution at 37°C, submitted to a 1 g tension and connected to a force transducer.

[5] abbreviates: human PRP on acetylsalicylic acid-treated bovine endothelial cells, collagen 0.5 µg/ml.
Where [6] appears, read: rabbit aortic rings contracted with norepinephrine (10^-6 M).

Structures are written as SMILES. Like-named read-outs stand apart in the source and are kept apart here.

Regarding `O=C(O)/C=C/c1ccc(Cn2ccnc2)cc1` [ozagrel, (E)-3-[4-(1H-imidazol-1-ylmethyl)-phenyl]-2-propenoic acid, reference compound], in assay [1] (human PRP, up to 10^-3 M concentrations), the “inhibitory activity in the aggregation induced by collagen” value is “did not show any significant inhibitory activity”.

With `O=C(O)Cc1ccc(CCNS(=O)(=O)c2ccc(Cl)cc2)cc1` [daltroban, p-[2-(p-chlorobenzenesulfonamido)ethyl]phenylacetic, reference compound], in assay [2], the “effect on thromboxane synthesis” value was “did not show any effect”. In addition, in assay [3] (setting [5]), the “production of the prostacyclin metabolite (effect in words)” value is “did not stimulate the synthesis of prostacyclin”.

One may read the IC50 as the point on the concentration scale where inhibition reaches its midpoint. As a reminder, the EC50 is the midpoint of the concentration-response curve. With `COc1ccc(C(=O)N[C@H]2CC[C@H](O[N+](=O)[O-])CC2)cc1C(=O)NCc1cccnc1` [4-methoxy-N^1-(4-trans-nitrooxycyclohexyl)-N^3-(3-pyridinylmethyl)-1,3-benzenedicarboxamide], the half-inhibitory concentration (IC50) in assay [2] (1 h, read-out: IC50 (inhibit thromboxane synthesis)) is 18 µM; in assay [1] (aggregation induced by U-46619 (threshold concentration)), 33 µM; in assay [1] (aggregation induced by arachidonic acid (threshold concentration)), 12 µM; in assay [1] (aggregation induced by collagen (threshold concentration)) it was 22 µM. Besides, the EC50 in assay [4] (norepinephrine-contracted rabbit aortic rings, methylene blue 10^-5 M in the bath) is 55 µM; in assay [4] (setting [6]) it was 3.2 µM. For the same molecule, the “relaxation in aortic rings” value in assay [4] (aortic rings contracted with 5-hydroxytryptamine) and in assay [4] (aortic rings contracted with U-46619) was “similarly able to produce relaxation” in each case. Moreover, the “concentration inducing a complete relaxation of the aortic ring” value in assay [4] (setting [6]) is 10^-4 M. Further, the “concentration from which production of the prostacyclin metabolite was increased” value in assay [3] (setting [5]) is 10^-6 M. Further, in assay [3] (setting [5]), the “production of the prostacyclin metabolite (effect in words)” value is recorded as “markedly increased”. Moreover, the “production of the prostacyclin metabolite (6-keto-prostaglandin F1α), level reached” value in assay [3] (human PRP on acetylsalicylic acid-treated bovine endothelial cells, collagen 0.5 µg/ml, up to) was in the range of 800 to 1600 pg/mL. In assay [3] (relative to basal production of untreated endothelial cells), the “level times higher of the amount produced in basal conditions by endothelial cells not submitted to cyclooxygenase inhibition” value is recorded as 8-16 times.
